Results from publication PMC8224398, “SARS-CoV-2 mutations in MHC-I-restricted epitopes evade CD8^+ T cell responses” (Science Immunology, 2021).

Key:
HLA-A*02:01 = HLA-A*02:01 (Homo sapiens, UniProt P04439, D140Y/D185E/D98H/E176V/E277Q/G131W/G231S/I119V/I121R/I166T/I218V/L300P/L318F/N151K/N90K/P208A/P217A/Q86G/Q94H/R138H/R169H/T345S); type: binding
HLA-B*40:01 = HLA-B*40:01 (Homo sapiens, UniProt P01889, A65T/A93T/A95T/D138N/D98Y/E176V/E69K/N87E/Q56L/Q94N/R180L/S121R/S35A/S48T/T167S/V36M/W171L/Y33H/Y91S); type: binding
[1] = test system: autologous EBV+ B cells pulsed with peptide; type: cell-based, human; details: 5 h at 37°C

Sequence | binding to HLA-A*02:01 (thermal stability of the peptide-MHC-I complex, DSF) (HLA-A*02:01) | binding to recombinant HLA-B*40:01 (DSF) (HLA-B*40:01) | killing of EBV+ B cells pulsed with the peptide by wild type YLQ expanded PBMCs [1] | killing of peptide-pulsed EBV+ B cells by PBMCs expanded with the peptide [1]
LALLLLDRL | did neither observe binding | – | – | –
LFFNKVTLA | non-binder | – | – | –
LQLPQGTTL | did neither observe binding | – | – | –
MEVTPSGTWL | not to HLA-A*02:01 | specific binding | – | –
YFQPRTFLL [YLQ mutant] | weak binder | – | failed to kill | failed to kill both wild type and mutant peptide pulsed EBV^+ B cells
YLQPRTFLL [YLQ wildtype] | – | – | specific killing | –
